This note sets out measurements from publication PMC4202157, “Amphipathic tail-anchoring peptide is a promising therapeutic agent for prostate cancer treatment” (Oncotarget, 2014).

“Also recorded” adds a separate entry of the source. Bridge positions count the residues as written; N and C are the ends. Peptide text beside a SMILES is read from it.

For one series, the system named is DU145 xenograft. The series is described as follows: DU145 xenograft in nude mice. The format is in vivo, NCR nude mice. How it is done:
(§1) Handling of animals was performed in accordance with protocols approved by the Institutional Animal Care and Use Committee (IACUC) of the Ohio State University. Five week-old NCR nude mice (Taconic Farms, Germantown, NY) were implanted subcutaneously in both flanks with 2 ×10^6 DU145 or PC-3 cells. After tumors reached 4 to 7 mm in diameter (about 9~14 days after implantation), the mice were randomly divided into two groups so that both the mean and the variance of the tumor diameters are of no significant difference among the groups prior to treatment. The ATAP-iRGD-M8 peptide was injected through tail vein once every two days during the whole procedure. Tumor volume was measured by a digital caliper (Thermo Fisher Scientific, Waltham, MA). Tumor volume was determined from the orthogonal dimensions (length, width) using the formula: tumor volume = 1/2(length × width^2). According to the IACUC guideline, the experiments will be terminated when tumors reached 1.5 cm in diameter. At the end of experiment, mice were sacrificed and xenografts were removed and weighted. For toxicological evaluation of peptide treatments, mouse body weights were measured every four days. […]

The test system of series [1] is DU145 cells. Kind of series: Live-cell confocal imaging of peptide uptake and mitochondria localization. The settings on record: 2 μM Dylight488-labeled peptide, Mito Tracker Red, 50 μM Q-VD-OPh, confocal microscopy. The format is cell-based. Here is the method: ATAP-iRGD and ATAP-iRGD-M8 peptides were labeled with an amine-reactive DyLight488 fluorophore (Pierce Biotechnology, Rockford, USA) according to the manufacturer's instructions. DU145 cells were cultured in the presence of 2 μM Dylight488-labeled ATAP-iRGD or ATAP-iRGD-M8 plus 50 nM Mito Tracker Red (Molecular Probes Inc., Eugene, OR). 50 μM Q-VD-OPh was added to the culture medium in order to prevent cell apoptosis. Sample images were taken by BioRad 2100 Radiance laser scanning confocal microscope (Bio-Rad Laboratories, Hercules, CA) with a 60×, 1.3NA oil immersion objective (Nikon Instruments Inc., Melville, NY).

The next series deals with PC-3 xenograft. Kind of series: PC-3 xenograft in nude mice. The format is in vivo, NCR nude mice. The settings on record: tail vein injection once every two days. How it is done:
as §1

The test system of series [2] is kidney, heart, liver, lung and spleen. Kind of series: H&E organ pathology in xenograft nude mice. The format is in vivo, NCR nude mice. The note with it: xenograft nude mice after peptide treatment, vs control. Here is the method:
as §1

The nature of series [3]: Precipitation / aggregation of peptide in cell culture medium. The format is physicochemical. The note with it: for Precipitation in normal culture medium: 200 μM peptide added to DU145 cells in normal culture medium, 37 °C, 24 hours incubation, microscopy.
For the next series, the system named is K562 cells. The format is cell-based, human. The note with it: 48 h. Here is the method: (§2) The human esophageal squamous carcinoma cell line KYSE-150 was provided by Dr. Chung S. Yang (Rutgers University, Piscataway, NJ)[41, 42]. DU145, LNCaP, PC-3, K562, U87 and MDA-MB-231 cells were purchased from American Type Culture Collection and cultured with designated medium, supplemented with 10% fetal bovine serum, 100 unit/ml penicillin, and 100 μg/ml streptomycin. Cell viability was determined by MTT assay. Cells were plated at 1,000-1,500 cells per well in a 96-well plate and then treated with indicated amounts of ATAP peptides for 48 hours. Then, 20 μl (5 mg/ml in PBS) MTT [3-(4,5-dimethylthiazol-2-yl)-2,5-diphenyltetrazolium bromide] (Sigma Chemical Co., St. Louis, Mo.) was added to each well. After another 4 hours, 150 μL DMSO was added to dissolve formazan crystals in each well, and the absorbance were recorded at 570 nm.

Series [4] has as its system KYSE-150 esophageal squamous carcinoma cells. The format is cell-based, human. The settings on record: 48 h. Here is the method:
as §2

The subject of series [5] is DU145 cells. Kind of series: MTT cell viability assay, DU145 cells. The format is cell-based. How it is done:
as §2
In general terms: Tetrazolium assays rely on reduction of a dye to a coloured formazan, in cell work by metabolically active cells.

The next series concerns SV129 mice. The series is described as follows: Repetitive intravenous injection toxicity in SV129 mice. The format is in vivo. Here is the method:
For further evaluation of the in vivo toxic effect of ATAP-iRGD, repetitive injections of ATAP-iRGD into the immune intact SV129 mice were conducted.

Series [6] relates to MDA-MB-231 breast adenocarcinoma cells. The format is cell-based. The settings on record: 48 h. Here is the method: as §2
The subject of the next series is U87 glioblastoma cells. The format is cell-based. The settings on record: 48 h. Here is the method: as §2
The next series concerns PC-3 cells. The format is cell-based. The note with it: 48 h. How it is done: as §2
The test system of another series is LNCaP cells. The format is cell-based. The note with it: 48 h. Here is the method: as §2

For the compound “Ac-KKFEPKSGWMTFLEVTGKIAEMLSLLKQYCRGDKGPDC-NH2 (disulfide 30-38 (inferred)) [ATAP-iRGD-M8, ATAP-iRGD with one more Lys, acetylated and amidated termini]”, in the series on DU145 xenograft (21 mg/kg via tail vein once every two days, n=6 treated, n=9 saline), the “DU145 xenograft volume vs saline” value is recorded as “significantly smaller”. In addition, in the series with DU145 xenograft (xenografts dissected and weighted, mean±SEM, P<0.05 (Fig. S2)), the “DU-145 xenograft weight at end of experiment” value is listed as “significantly suppressed DU-145 tumor growth”. The “Cell uptake and mitochondria localization” value with DU145 cells [1] is recorded as “clear mitochondria target pattern”. In addition, the “PC-3 xenograft tumor growth vs saline” value in the series with PC-3 xenograft is recorded as “significant suppression of tumor growth”. The “H&E pathology of kidney, heart, liver, lung and spleen” value in series [2] was “no obvious changes”. Also, in series [3], the “Precipitation in normal culture medium” value is “no precipitation”. The “Concentration at which no precipitation was observed” value in series [3] (normal cell culture medium, neutral pH, prolonged incubation) is reported as “above 200 μM”.

“Ac-KFEPKSGWMTFLEVTGKIAEMLSLLKQYCRGDKGPDC-NH2 (disulfide 29-37 (inferred)) [Mutant M7, ATAP-iRGD with acetylated amino terminus and amidated carboxyl terminus]”: the “Precipitation in normal culture medium” value in series [3] is listed as “precipitate; also recorded: pronounced precipitation”.

Usually IC50 stands for the concentration that inhibits the measured activity by half. The low end stands for greater potency, the high end for weaker potency. As for `CC[C@H](C)[C@H](NC(=O)[C@H](CCCCN)NC(=O)CNC(=O)[C@@H](NC(=O)[C@@H](NC(=O)[C@H](CCC(=O)O)NC(=O)[C@H](CC(C)C)NC(=O)[C@H](Cc1ccccc1)NC(=O)[C@@H](NC(=O)[C@H](CCSC)NC(=O)[C@H](Cc1c[nH]c2ccccc12)NC(=O)CNC(=O)[C@H](CO)NC(=O)[C@H](CCCCN)NC(=O)[C@@H]1CCCN1C(=O)[C@H](CCC(=O)O)NC(=O)[C@H](Cc1ccccc1)NC(=O)[C@@H](N)CCCCN)[C@@H](C)O)C(C)C)[C@@H](C)O)C(=O)N[C@@H](C)C(=O)N[C@@H](CCC(=O)O)C(=O)N[C@@H](CCSC)C(=O)N[C@@H](CC(C)C)C(=O)N[C@@H](CO)C(=O)N[C@@H](CC(C)C)C(=O)N[C@@H](CC(C)C)C(=O)N[C@@H](CCCCN)C(=O)N[C@@H](CCC(N)=O)C(=O)N[C@@H](Cc1ccc(O)cc1)C(=O)N[C@H]1CSSC[C@@H](C(=O)O)NC(=O)[C@H](CC(=O)O)NC(=O)[C@@H]2CCCN2C(=O)CNC(=O)[C@H](CCCCN)NC(=O)[C@H](CC(=O)O)NC(=O)CNC(=O)[C@H](CCCNC(=N)N)NC1=O` [ATAP-iRGD] (H-KFEPKSGWMTFLEVTGKIAEMLSLLKQYCRGDKGPDC-OH; disulfide 29-37), the half-inhibitory concentration (IC50) in the series with K562 cells came out at 107 ± 41 µM; in series [4], 4.4 ± 0.5 µM; in the series on DU145 cells [5] (48 h), 1.6 ± 0.5 µM; in series [6], 5.9 ± 1.1 µM; in the series with U87 glioblastoma cells, 10.3 ± 2.6 µM; with PC-3 cells, 9.2 ± 1.6 µM. In the series with LNCaP cells, this compound showed a half-inhibitory concentration (IC50) of 7.1 ± 1.7 µM. The “Signs of toxicity on repetitive injection” value in the series on SV129 mice (immune intact SV129 mice, repetitive intravenous injections) is reported as “no visible signs or symptoms of toxicity”. Moreover, the “H&E pathology of kidney, heart, liver, lung and spleen” value in the series with SV129 mice (mouse, in vivo, iv) is recorded as “no significant pathological abnormalities”.

Take `CC[C@H](C)[C@H](NC(=O)[C@H](CCCCN)NC(=O)CNC(=O)[C@@H](NC(=O)[C@@H](NC(=O)[C@H](CCC(=O)O)NC(=O)[C@H](CC(C)C)NC(=O)[C@H](Cc1ccccc1)NC(=O)[C@@H](NC(=O)[C@H](CCSC)NC(=O)[C@H](Cc1c[nH]c2ccccc12)NC(=O)CNC(=O)[C@H](CO)NC(=O)[C@H](CCCCN)NC(=O)[C@@H]1CCCN1C(=O)[C@H](CCC(=O)O)NC(=O)[C@H](Cc1ccccc1)NC(=O)[C@@H](N)CCCCN)[C@@H](C)O)C(C)C)[C@@H](C)O)C(=O)N[C@@H](C)C(=O)N[C@@H](CCC(=O)O)C(=O)N[C@@H](CCSC)C(=O)N[C@@H](CC(C)C)C(=O)N[C@@H](CO)C(=O)N[C@@H](CC(C)C)C(=O)N[C@@H](CC(C)C)C(=O)N[C@@H](CC(C)C)C(=O)N[C@@H](CCC(N)=O)C(=O)N[C@@H](Cc1ccc(O)cc1)C(=O)N[C@H]1CSSC[C@@H](C(=O)O)NC(=O)[C@H](CC(=O)O)NC(=O)[C@@H]2CCCN2C(=O)CNC(=O)[C@H](CCCCN)NC(=O)[C@H](CC(=O)O)NC(=O)CNC(=O)[C@H](CCCNC(=N)N)NC1=O` [Mutant M4] (H-KFEPKSGWMTFLEVTGKIAEMLSLLLQYCRGDKGPDC-OH; disulfide 29-37): in the series with DU145 cells [5] (MTT assay, 48 hours, unconjugated ATAP tested at 0.01 – 100 μM), the “Cytotoxic activity in DU145 cells, in words” value is recorded as “complete abolishment of the cytotoxic activity”.
